# Laboratory results as given in patent publication US9555022B2, “Substituted triazolopyridines” (Bayer Intellectual Property GmbH, priority 2010, dated 2017).
# Molecular target: human full length recombinant Mps-1 kinase (Homo sapiens (Human), UniProt P33981)
# Experiment: Mps-1 Kinase Assay (TR-FRET)
# Format: biochemical
# Details: 10 μM ATP, 1 μM biotinylated peptide substrate, 60 min at 22° C., read-out: Mps-1 Inhibition, IC50 in M
# In short: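 Inhibition of Mps-1 (N-terminal GST fusion, full length) toward a biotinylated peptide is read as Eu-to-XLent TR-FRET. Enzyme level, around 1 nM final, follows lot activity.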
# Sequence of human full length recombinant Mps-1 kinase (P33981 whole entry): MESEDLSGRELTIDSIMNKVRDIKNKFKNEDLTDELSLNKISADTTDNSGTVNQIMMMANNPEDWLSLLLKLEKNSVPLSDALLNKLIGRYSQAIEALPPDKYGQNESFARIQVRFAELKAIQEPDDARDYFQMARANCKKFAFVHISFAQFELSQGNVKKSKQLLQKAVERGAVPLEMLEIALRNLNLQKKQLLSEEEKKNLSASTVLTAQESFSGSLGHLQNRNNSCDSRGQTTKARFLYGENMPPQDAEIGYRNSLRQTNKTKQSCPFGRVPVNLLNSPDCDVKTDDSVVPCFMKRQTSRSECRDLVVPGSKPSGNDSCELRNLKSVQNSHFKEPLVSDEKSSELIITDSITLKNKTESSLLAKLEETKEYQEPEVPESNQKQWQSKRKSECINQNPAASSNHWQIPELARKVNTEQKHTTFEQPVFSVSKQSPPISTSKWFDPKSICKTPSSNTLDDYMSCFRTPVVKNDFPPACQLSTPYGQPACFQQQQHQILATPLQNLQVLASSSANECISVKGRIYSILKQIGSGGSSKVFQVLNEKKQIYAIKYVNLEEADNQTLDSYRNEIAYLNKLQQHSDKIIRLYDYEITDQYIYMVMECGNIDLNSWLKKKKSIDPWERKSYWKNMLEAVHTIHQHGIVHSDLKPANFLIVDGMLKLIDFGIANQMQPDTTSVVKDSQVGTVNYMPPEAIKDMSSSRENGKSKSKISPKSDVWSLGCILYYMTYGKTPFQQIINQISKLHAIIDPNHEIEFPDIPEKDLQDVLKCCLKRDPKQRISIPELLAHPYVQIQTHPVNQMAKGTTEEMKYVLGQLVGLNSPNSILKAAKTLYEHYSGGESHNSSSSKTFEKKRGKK
row,Compound,IC50 [nM]
1,"COc1cc(CN2CCOCC2)ccc1Nc1nc2ccc(-c3ccc(C(=O)NCc4ccc(F)cc4)c(F)c3)cn2n1 [Example 06.02, 2-fluoro-N-(4-fluorobenzyl)-4-(2-{[2-methoxy-4-(morpholin-4-ylmethyl)phenyl]amino}[,2]-triazolo[1,5-a]pyridin-6-yl)benzamide]",≤ 1
2,"COc1cc(C(=O)N2CCOCC2)ccc1Nc1nc2ccc(-c3ccc(C(=O)NCc4ccc(F)cc4)c(C)c3)cn2n1 [Example 07.01, N-(4-fluorobenzyl)-4-(2-{[2-methoxy-4-(morpholin-4-ylcarbonyl)phenyl]amino}[,2]-triazolo[1,5-a]pyridin-6-yl)-2-methylbenzamide]",≤ 1
3,"COc1cc(C(=O)N2CCOCC2)ccc1Nc1nc2ccc(-c3ccc(C(=O)NCc4ccc(F)cc4)c(Cl)c3)cn2n1 [Example 08.01, 2-chloro-N-(4-fluorobenzyl)-4-(2-{[2-methoxy-4-(morpholin-4-ylcarbonyl)phenyl]amino}[,2]-triazolo[1,5-a]pyridin-6-yl)benzamide]",≤ 1
4,"COc1cc(C(=O)N2CCOCC2)ccc1Nc1nc2ccc(-c3ccc(NC(=O)Cc4ccc(F)cc4)nc3)cn2n1 [Example 11.01, 2-(4-fluorophenyl)-N-[5-(2-{[2-methoxy-4-(morpholin-4-ylcarbonyl)phenyl]amino}[,2]triazolo[1,5-a]pyridin-6-yl)pyridin-2-yl]acetamide]",1.62
5,"CCOc1cc(C(=O)N2CCOCC2)ccc1Nc1nc2ccc(-c3ccc(NC(=O)Cc4ccc(F)cc4)nc3)cn2n1 [Example 11.02, N-[5-(2-{[2-ethoxy-4-(morpholin-4-ylcarbonyl)phenyl]amino}[,2]triazolo[1,5-a]pyridin-6-yl)pyridin-2-yl]-2-(4-fluorophenyl)acetamide]",≤ 1

# Second part, the molecule after the results:
row,IC50 [nM],Compound
1,≤ 1,"COc1cc(C(=O)N2CCOCC2)ccc1Nc1nc2ccc(-c3ccc(C(=O)NCc4ccc(F)cc4)c(F)c3)cn2n1 [Example 06.01, 2-fluoro-N-(4-fluorobenzyl)-4-(2-{[2-methoxy-4-(morpholin-4-ylcarbonyl)phenyl]amino}[,2]-triazolo[1,5-a]pyridin-6-yl)benzamide]"
2,1.1,"COc1cc(N2CCOC2=O)ccc1Nc1nc2ccc(-c3ccc(C(=O)NCc4ccc(F)cc4)c(C)c3)cn2n1 [Example 07.02, N-(4-fluorobenzyl)-4-(2-{[2-methoxy-4-(2-oxo-1,3-oxazolidin-3-yl)phenyl]amino}[,2]-triazolo[1,5-a]pyridin-6-yl)-2-methylbenzamide]"
3,≤ 1,"COc1cc(C(=O)N2CCOCC2)ccc1Nc1nc2ccc(-c3ccc(C(=O)NCc4ccc(F)cc4)c(OC)c3)cn2n1 [Example 09.01, N-(4-fluorobenzyl)-2-methoxy-4-(2-{[2-methoxy-4-(morpholin-4-ylcarbonyl)phenyl]amino}[,2]-triazolo[1,5-a]pyridin-6-yl)benzamide]"
4,≤ 1,"COc1cc(C(=O)N2CCOCC2)ccc1Nc1nc2ccc(-c3ccc(NC(=O)Cc4ccc(F)cc4)c(F)c3)cn2n1 [Example 10.01, N-[2-fluoro-4-(2-{[2-methoxy-4-(morpholin-4-ylcarbonyl)phenyl]amino}[,2]-triazolo[1,5-a]pyridin-6-yl)phenyl]-2-(4-fluorophenyl)acetamide]"
5,≤ 1,"COc1cc(N2CCOC2=O)ccc1Nc1nc2ccc(-c3ccc(C(=O)NCc4ccc(F)cc4F)c(C)c3)cn2n1 [Example 12.01, N-(2,4-difluorobenzyl)-4-(2-{[2-methoxy-4-(2-oxo-1,3-oxazolidin-3-yl)phenyl]amino}[,2]triazolo[1,5-a]pyridin-6-yl)-2-methylbenzamide]"
